Measurements taken from US10251845B2, “Fatty acid cysteamine conjugates and their use as activators of autophagy” (Catabasis Pharmaceuticals, Inc., priority 2014, dated 2019).

How the values were obtained:
Type in all cases: cell-based, human
Settings in all cases: NLF, LL29 or LL97A cells treated with TGFβ, 25 μM, 24 hours
[1] = tested on: Fibronectin 1 (FN1); test: RT-PCR of Fibronectin 1 mRNA in normal and IPF lung fibroblasts
From the text: (§1) Normal human lung fibroblasts (ScienCell Research Laboratory 3420), lung fibroblasts from idiopathic pulmonary fibrosis (IPF) patients LL29 (AnHa) (ATCC) and LL97A (ALMy) (ATCC) were maintained in DMEM F12 (Gibco 10565) supplemented with 15% fetal bovine serum (FBS) (Gibco 10437-028) plus Pen-Strep (1%) (Gibco 15140-122). Cells were split every 3 to 4 days at 1:2/1:3 dilution each time. The day before the experiment, cells were trypsinized using Trypsin-EDTA (0.05%) (Gibco 25300-054) and plated on 24-well […] at 1×10^5 cells per well.
(§2) Compounds II-3 and I-1 were first solubilized in 100% DMSO as 50 mM solution, and then diluted 1 to 200 in 1% BSA as a 10× stock solution of […], and series stock dilution (1 to 2 dilution) were carried out as needed. […] The total RNA was harvested, and the relative mRNA expression levels were assessed via RT-PCR with HPRT as the internal control. […] Significance was determined by student's t-test in comparison to control.
(§3) Total RNA was collected using RNeasy Plus Mini Kit (Qiagen #74136) and cDNA generated using SuperScriptIII (Invitrogen #18080-044) with random hexamers following the manufacturer's protocol. Relative mRNA expression levels were determined using TaqMan probes (Applied Biosystems, using the recommended best primer pairs) with HPRT (hypoxanthine phosphoryltransferase) as the internal control. […]

[2] = tested on: TIMP-2; test: RT-PCR of TIMP-2 mRNA in normal and IPF lung fibroblasts
From the text: as §1, §2, §3

[3] = tested on: Collagen 1a1 (COL1a1); test: RT-PCR of Collagen 1a1 mRNA in normal and IPF lung fibroblasts
From the text: as §1, §2, §3

CC/C=C\C/C=C\C/C=C\C/C=C\C/C=C\C/C=C\CCC(=O)NCCS [I-1, (4Z,7Z,10Z,13Z,16Z,19Z)—N-(2-mercaptoethyl)docosa-4,7,10,13,16,19-hexaenamide]
suppressed: mRNA level of Fibronectin 1 (FN1) [1] | mRNA level of TIMP-2 [2] | mRNA level of Collagen 1a1 (COL1a1) [3]

CC/C=C\C/C=C\C/C=C\C/C=C\C/C=C\C/C=C\CCC(=O)NCCSSC(C)(C)CNC(=O)c1cccnc1 [II-3, N-(2-((2-((4Z,7Z,10Z,13Z,16Z,19Z)-docosa-4,7,10,13,16,19-hexaenamido)ethyl)disulfanyl)-2-methylpropyl)nicotinamide]
suppressed: mRNA level of Fibronectin 1 (FN1) [1] | mRNA level of TIMP-2 [2] | mRNA level of Collagen 1a1 (COL1a1) [3]
